The text below walks through data of patent US20100197584A1, “USE OF CURCUMIN TO BLOCK BRAIN TUMOR FORMATION IN MICE” (Research Foundations of the City University of- New York, priority 2007, published 2010).

Each structure is given as a SMILES string.

The assay deals with A549 (human lung cancer) cells. The assay is described as follows: Caspase-3/7 assay in A549 cells. It counts as cell-based. As to conditions: 20 μM and 50 μM, 48 h (FIG. 5). As for the experimental part:
Cells. B16F10 (mouse melanoma), GL261 (mouse glioma), HOG (human oligodendroglioma), A549 (human lung cancer), and […] (mouse neuroblastoma) cells were cultured separately in DMEM containing 10% (v/v) fetal bovine serum and 1% (v/v) penicillin-streptomycin (PS) and allowed to grow to 40% confluence in a 96-well plate. Curcumin Treatment. Two hours before drug treatment, the medium in each well was replaced with 200 μl Neurobasal medium supplemented with 2% (v/v) B27 and 1% (v/v) PS (Drug-treatment Medium). A stock solution (40 mM) of curcumin was prepared in sterile dimethyl sulfoxide (DMSO) (Example 1). Through serial dilution of each stock solution in Drug-treatment Medium, the following concentrations were obtained: 20 μM and 50 μM (for caspase 3/7 assays) or 25 μM and 50 μM (for MTT assays). Drug-treatment Medium in each well was aspirated, and a drug solution of each concentration or carrier-containing medium (control) was added to triplicate wells of cells (50 μl/well). […] Additionally, the background absorbance was determined from parallel wells containing only the Drug-treatment Medium plus a particular concentration of the drug (no cells). […] Fluorescence in each well was measured using the FLx 800 plate reader (Bio-Tek Instruments, Winooski, Vt.) set at 485/20 nm excitation and 528/20 nm emission wavelengths and the sensitivity of 70. […]

On to `COc1cc(/C=C/C(=O)CC(=O)/C=C/c2ccc(O)c(OC)c2)ccc1O` [curcumin], for which the caspase-3/7 activity result is given as “increased”.
